Laboratory results: patent US20120122870A1, “Treatment Of Ischemia-Reperfusion Injury” (MUSC FOUNDATION FOR RESEARCH DEVELOPMENT, priority 2009, published 2012)
“Also recorded” adds a separate entry of the source.

Key:
[1] = tested on: mitochondrial depolarization in hepatocytes; assay: Intravital multiphoton microscopy of mitochondrial depolarization (Rh123/PI) after hepatic IR; format: in vivo, mice; conditions: 1 h of ischemia and 2 h of reperfusion
From the text: MPT onset is an important mechanism leading to cell death due to mitochondrial depolarization. […] There are two main advantages of multiphoton microscopy: 1) Red/infrared light penetrates deeper than visible light into solid tissues allowing visualization of tissue planes as deep as 1 mm into thick specimens. […] Therefore, the viability of thick living specimens is maintained much longer with multiphoton microscopy (Lemasters 2000). These advantages make multiphoton microscopy a powerful tool for studying mitochondrial function in live animals.
Following 1 h-ischemia and […], rhodamine-123 (Rh123), a cationic fluorophore that is taken up by polarized mitochondria, and propidium iodine (PI) that labels the nuclei of non-viable cells were infused and intravital multiphoton imaging of livers was performed. […]
Imaging of fluorescent probes Rh123, PI and calcein in vivo was achieved using a Zeiss LSM 510 laser scanning multiphoton microscope system using IR excitation of 800-900 nm from a Coherent Chameleon tunable Ti-Sapphire femtosecond pulsed laser, which excites both red- and green-fluorescing (rhodamine- and fluorescein-like) fluorophores. For calcein fluorescence, excitation of 720-nm was used.

[2] = tested on: kidney damage after severe ischemia-reperfusion; assay: Kidney histology (H&E) after severe kidney IR; format: in vivo, mice; conditions: 4 and 48 hours post ischemia and reperfusion
Experimental: Kidneys from the animals described with respect to FIG. 4 were sectioned and stained with H&E for histological evaluation. […] Kidney sections were quantitatively scored on a scale of 1 to 3 for five parameters (tubule cell swelling, tubular dilatation, edema, epithelial necrosis and tubular casts) that were added to generate a total score (FIG. 6).

[3] = tested on: PMN infiltration in liver; assay: PMN infiltration (MPO immunohistochemistry) after hepatic warm IR; format: in vivo, mice
Experimental: ABC294640 prevents hepatic warm ischemia-reperfusion (IR)-induced polymorphonuclear leukocyte (PMN) infiltration in mice. Hepatic warm ischemia was induced by clamping the mouse hepatic artery and portal vein to the upper three lobes of the liver as described in the original application. One hour later, the ischemic liver was reperfused by opening the vascular clamp. Livers were collected 6 h later and myeloperoxidase (MPO), a marker of PMNs, was detected immunohistochemically. MPO-positive cells were counted in 10 fields selected randomly per slide in a blinded manner to assess PMN infiltration. MPO-positive cells were ˜1/high power field (hpf) in livers from sham-operated mice (FIG. 16). Six hours after reperfusion, MPO-positive cells increased almost 10-fold, indicating pronounced inflammation. […] ABC294640 (50 mg/kg, i.g. once) decreased PMN infiltration by ˜70% at 6 h after reperfusion (FIG. 16). Livers from mice exposed to one dose of ABC294640 had lower PMN infiltration compared to the untreated mice even at 2 weeks after reperfusion. […] Immunohistochemistry: Sections were deparaffinized in xylene, rehydrated in a series of graded alcohol concentrations and placed in phosphate buffered saline with 0.1% Tween-20. […] Appropriate peroxidase-conjugated secondary antibodies (DAKO Corp.) were then applied, followed by 3,3′-diaminobenzidine chromagen as the peroxidase substrate. A light counterstain of Meyer's hematoxylin was applied.

[4] = tested on: lean liver transplantation in rats; assay: Lean liver transplantation, serum ALT; format: in vivo; conditions: 60 μM in UW and Ringer's solutions plus 50 mg/kg i.p. to recipients; 6 h after LT; 8 h cold storage
Experimental: ABC294640 decreases graft injury after lean LT. To investigate whether ABC294640 protects liver grafts after LT, a pilot study was conducted. Lean livers were explanted and stored in UW solution for 8 h. ABC294640 was added to the UW solution and the lactated Ringer's post-storage solution at a concentration of 60 μM and injected into the recipients (50 mg/kg, i.p.) immediately after transplantation. […] Liver transplantation: Inbred male Lewis rats (200-250 g) were used to prevent immunological interference. Under ether anesthesia, heparin (200 IU) in 0.5 mL of lactated Ringer's solution was injected into the subhepatic vena cava. A 4-mm long stent prepared from polyethylene tubing (PE50) was inserted into the common bile duct and secured with a 6-0 suture. Livers were then flushed with 5 ml of ice-cold UW cold storage solution. Venous cuffs prepared from 14-gauge i.v. catheters were placed in the subhepatic vena cava and the portal vein. Liver explants were stored in UW solution (0-1° C.) for 4-24 h, rinsed with lactated Ringer's solution and then implanted (n=10 in each group). […] Clinical chemistry: Blood samples were collected from the vena cava at various times, and ALT and bilirubin were measured enzymatically using analytic kits from Pointe Scientific.

hepatic warm IR in mice = assay: Serum ALT and total bilirubin after hepatic warm IR; format: in vivo
Experimental: Liver warm ischemia was induced as described above. Blood was collected at 6 h after reperfusion, and serum alanine aminotransferase (ALT) activity and bilirubin were measured. Before ischemia, serum ALT levels were 22 U/L. At 6 h after reperfusion, ALT levels increased to ˜19,000 U/L in livers exposed to 1 h-ischemia (FIG. 12A). Pretreatment of the animals with ABC294640 decreased ALT levels after IR to ˜1,600 U/L, which reflects a >90% decrease compared to livers without ABC294640 treatment (FIG. 12A). […] Bilirubin accumulates in the blood when liver function is poor. Serum total bilirubin was 0.26 mg/dL in mice subjected to the sham operation. Bilirubin increased 3-fold 6 h after reperfusion (FIG. 12B). […] Clinical chemistry: Blood samples were collected from the vena cava at various times, and ALT and bilirubin were measured enzymatically using analytic kits from Pointe Scientific.

O=C(NCc1ccncc1)C12CC3CC(C1)CC(c1ccc(Cl)cc1)(C3)C2 [ABC294640, 3-(4-chlorophenyl)-N-(pyridin-4-ylmethyl)adamantane-1-carboxamide]
mitochondrial depolarization after hepatic IR (in words) [1]: rare and largely prevented and prevents mitochondrial depolarization
hepatocytes with mitochondrial depolarization ([1]; Rh123): 17%
kidney histological damage vs vehicle [2]: protects against microscopic damage; also recorded: much less damage
decrease of PMN infiltration (MPO-positive cells) ([3]; 50 mg/kg, i.g. once, 6 h after reperfusion): ~70%
PMN infiltration after hepatic IR (in words) ([3]; livers harvested 6 h or 2 weeks after IR): inhibits PMN infiltration
PMN infiltration compared to untreated mice ([3]; one dose, 2 weeks after reperfusion): lower
serum ALT after lean LT vs vehicle [4]: markedly attenuated; also recorded: decreases ALT release
liver function / hepatic IR injury (in words) (hepatic warm IR in mice; 1 h-ischemia plus 6 h-reperfusion): markedly decreases hepatic IR injury; also recorded: improves liver function
decrease of ALT compared to livers without treatment (hepatic warm IR in mice; 1 h-ischemia, 6 h after reperfusion): > 90%
accumulation of serum total bilirubin (hepatic warm IR in mice; 6 h after reperfusion): almost completely reversed
serum ALT levels after IR (hepatic warm IR in mice; pretreatment 50 mg/kg, 1 h-ischemia, 6 h after reperfusion): ~1,600 U/L
